Results published in patent publication US20130123254A1, “PHARMACEUTICALLY ACCEPTABLE MGLUR5 POSITIVE ALLOSTERIC MODULATORS AND THEIR METHODS OF IDENTIFICATION” (priority 2011, published 2013).

What was measured:
human mGlu5a receptor [1] = molecular target: T1, human mGlu5a receptor (Homo sapiens, UniProt P41594); test: Intracellular Ca2+ mobilization assay, PAM EC50 and efficacy at EC20 of L-glutamate; format: cell-based; settings: maximal response relative to saturating L-glutamate, FIGS. 4 and 5
T1 construct: expressed in transfected cells
T1 sequence (P41594 21-1180 isoform P41594-2 limits assumed): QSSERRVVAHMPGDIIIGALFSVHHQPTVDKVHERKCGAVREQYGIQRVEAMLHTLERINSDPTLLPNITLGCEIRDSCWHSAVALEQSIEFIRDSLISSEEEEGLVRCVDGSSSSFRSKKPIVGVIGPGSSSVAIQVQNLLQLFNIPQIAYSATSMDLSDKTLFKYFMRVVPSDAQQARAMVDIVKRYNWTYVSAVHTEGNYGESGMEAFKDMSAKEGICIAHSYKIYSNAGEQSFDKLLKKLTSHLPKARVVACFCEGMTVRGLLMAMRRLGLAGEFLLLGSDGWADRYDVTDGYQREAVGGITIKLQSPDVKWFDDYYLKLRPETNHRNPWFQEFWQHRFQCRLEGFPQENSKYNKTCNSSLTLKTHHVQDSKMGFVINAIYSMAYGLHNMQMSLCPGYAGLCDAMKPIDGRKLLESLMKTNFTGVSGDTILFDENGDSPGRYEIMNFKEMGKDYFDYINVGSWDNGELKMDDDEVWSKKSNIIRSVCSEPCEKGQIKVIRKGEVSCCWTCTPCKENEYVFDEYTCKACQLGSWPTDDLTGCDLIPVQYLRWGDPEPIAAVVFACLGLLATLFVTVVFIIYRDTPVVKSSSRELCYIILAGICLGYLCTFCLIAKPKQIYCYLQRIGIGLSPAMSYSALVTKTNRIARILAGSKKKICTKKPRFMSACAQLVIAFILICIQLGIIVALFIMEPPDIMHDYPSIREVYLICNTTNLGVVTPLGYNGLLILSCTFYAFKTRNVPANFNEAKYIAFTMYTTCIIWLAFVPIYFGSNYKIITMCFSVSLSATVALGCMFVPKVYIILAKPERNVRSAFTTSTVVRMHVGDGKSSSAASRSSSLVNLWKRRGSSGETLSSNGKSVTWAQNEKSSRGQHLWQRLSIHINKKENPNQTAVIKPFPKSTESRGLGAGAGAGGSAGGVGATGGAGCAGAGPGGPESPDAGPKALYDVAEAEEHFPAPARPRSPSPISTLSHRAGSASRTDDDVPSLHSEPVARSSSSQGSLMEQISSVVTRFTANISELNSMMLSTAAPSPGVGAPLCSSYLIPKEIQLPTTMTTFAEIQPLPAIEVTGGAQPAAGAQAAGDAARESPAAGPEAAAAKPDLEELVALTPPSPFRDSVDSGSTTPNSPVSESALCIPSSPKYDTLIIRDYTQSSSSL

human mGlu5a receptor [2] = molecular target: T1, human mGlu5a receptor; test: Shift factor in Ca2+ mobilization assay (human); format: cell-based; settings: shift factor = EC50(glutamate)/EC50(glutamate + test compound)
Experimental: A monoclonal HEK-293 cell line stably transfected with a cDNA encoding for the human mGlu5a receptor was generated; for the work with mGlu5 Positive Allosteric Modulators (PAMs), a cell line with low receptor expression levels and low constitutive receptor activity was selected to allow the differentiation of agonistic versus PAM activity. Cells were cultured according to standard protocols (Freshney, 2000) in Dulbecco's Modified Eagle Medium with high glucose supplemented with 1 mM glutamine, 10% (vol/vol) heat-inactivated bovine calf serum, Penicillin/Streptomycin, 50 μg/ml hygromycin and 15 μg/ml blasticidin (all cell culture reagents and antibiotics from Invitrogen, Basel, Switzerland).
About 24 hrs before an experiment, 5×10^4 cells/well were seeded in poly-D-lysine coated, black/clear-bottomed 96-well plates. The cells were loaded with 2.5 μM Fluo-4AM in loading buffer (1×HBSS, 20 mM HEPES) for 1 hr at 37° C. and washed five times with loading buffer. The cells were transferred into a Functional Drug Screening System 7000 (Hamamatsu, Paris, France), and 11 half logarithmic serial dilutions of test compound at 37° C. were added and the cells were incubated for 10-30 min. with on-line recording of fluorescence. Following this pre-incubation step, the agonist L-glutamate was added to the cells at a concentration corresponding to EC20 (typically around 80 μM) with on-line recording of fluorescence; in order to account for day-to-day variations in the responsiveness of cells, the EC20 of glutamate was determined immediately ahead of each experiment by recording of a full dose-response curve of glutamate.
(§1) The shift factor is calculated for a specific concentration of the test compound according to the equation: Shift factor=EC50(glutamate)/EC50(glutamate+×uM test compound).
(§2) On the same 96-well plate a serial dilution of glutamate is added to a) cells previously incubated for 10-30 min. with a fixed concentration of an mGlu5 PAM test compound and b) cells not incubated with mGlu5 PAM test compound. The peak fluorescence signals obtained from cells with or without pre-incubation with mGlu5 PAM test compound is plotted as illustrated, and the two EC50 values are derived from the plot. The shift factor is specific for the concentration of the test compound used and calculated as follows: Shift factor=ECM50(glutamate)/EC50(glutamate+×μM test compound).

mGlu5 receptor = molecular target: T2, mGlu5 receptor (Rattus norvegicus, UniProt P31424); test: Shift factor in Ca2+ mobilization assay (rat); format: cell-based
T2 construct: expressed in transfected cells
T2 sequence (P31424 21-1203): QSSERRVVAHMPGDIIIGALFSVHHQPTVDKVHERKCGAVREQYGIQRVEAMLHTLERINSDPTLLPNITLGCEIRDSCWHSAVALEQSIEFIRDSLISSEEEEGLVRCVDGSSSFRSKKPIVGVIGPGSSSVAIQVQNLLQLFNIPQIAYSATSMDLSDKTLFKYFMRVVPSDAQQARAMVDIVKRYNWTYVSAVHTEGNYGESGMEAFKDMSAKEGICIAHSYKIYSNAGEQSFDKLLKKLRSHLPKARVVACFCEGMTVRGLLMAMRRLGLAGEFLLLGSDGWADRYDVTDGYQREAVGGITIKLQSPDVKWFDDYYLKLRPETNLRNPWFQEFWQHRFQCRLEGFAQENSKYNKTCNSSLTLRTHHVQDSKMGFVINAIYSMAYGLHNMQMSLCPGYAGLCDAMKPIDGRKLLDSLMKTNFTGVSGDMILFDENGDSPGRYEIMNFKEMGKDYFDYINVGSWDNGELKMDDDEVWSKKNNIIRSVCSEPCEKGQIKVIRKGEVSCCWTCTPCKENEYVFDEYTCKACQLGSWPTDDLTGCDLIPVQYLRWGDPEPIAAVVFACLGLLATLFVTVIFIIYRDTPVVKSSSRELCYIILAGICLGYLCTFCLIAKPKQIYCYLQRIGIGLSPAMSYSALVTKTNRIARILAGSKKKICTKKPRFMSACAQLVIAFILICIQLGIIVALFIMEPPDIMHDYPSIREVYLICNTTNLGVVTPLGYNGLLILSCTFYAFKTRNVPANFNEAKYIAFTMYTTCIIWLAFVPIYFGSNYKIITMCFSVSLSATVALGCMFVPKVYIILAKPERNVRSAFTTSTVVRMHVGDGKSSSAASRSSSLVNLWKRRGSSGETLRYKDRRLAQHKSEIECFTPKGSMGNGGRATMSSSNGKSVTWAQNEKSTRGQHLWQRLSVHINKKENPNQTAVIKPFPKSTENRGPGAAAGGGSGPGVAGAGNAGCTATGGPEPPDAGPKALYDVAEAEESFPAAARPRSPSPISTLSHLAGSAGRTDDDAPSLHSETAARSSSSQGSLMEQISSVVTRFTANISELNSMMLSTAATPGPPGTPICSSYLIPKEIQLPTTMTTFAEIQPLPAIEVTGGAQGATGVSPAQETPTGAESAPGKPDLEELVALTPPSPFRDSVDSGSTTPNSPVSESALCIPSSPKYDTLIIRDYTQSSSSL
Experimental: as §1, §2

Body temperature test = format: in vivo; settings: rat, body temperature at 2 h, read-out: BT test MED (rat)
Experimental: Principle: Evaluation of the effect of a compound on core body temperature at a 2-h interval in the rat.
The temperature decrease in rats upon administration of mGluR5 negative allosteric modulators (antagonists) is well documented Warty & al.; Psychopharmacology (2005) 179: 207-217 (DOI 10.1007/s00213-005-2143-4)).
Male Sprague Dawley Rats (OFA-SD, Charles River, ˜250 g) are weighed and isolated for at least 30 min before compound injection in type II Makrolon cages. Before injection of the mGlu5 PAM compound, rectal body temperature is measured with a thermometer with a special rat probe for ˜20 s. The probe is dipped in glycerin before each use. Immediately after compound administration, rats are placed back in the type 2 cage. After 2 hours, the body temperature of each rat is measured again. The difference in absolute body temperature as well as the temperature difference delta T2-T0 between vehicle and compound injected rats is analysed.

[3] = HTD/LTD dose, tolerability in rat; settings: for HTD/LTD Dose (rat) (observation): observation at the HTD/LTD dose

## CC1(C)CCN(c2ccc(C#Cc3ccccc3)cn2)C(=O)O1 [Example 15]
Human mGlu5a receptor [1]
  efficacy: high efficacy
Human mGlu5a receptor [2]
  Shift (hum, 10 uM): 9.73
mGlu5 receptor
  Shift (rat, 10 uM): 7.67
Body temperature test
  minimal effective dose: 0.1 mg/kg
[3]
  HTD/LTD Dose (rat): 3 mg/kg
  HTD/LTD Dose (rat) (observation): seizures

## CO[C@@H]1C(=O)N(c2ncc(C#Cc3cccc(F)c3)cn2)CC1(C)C [Example 10]
Human mGlu5a receptor [2]
  Shift (hum, 10 uM): 3.46
mGlu5 receptor
  Shift (rat, 10 uM): 2.62
Body temperature test
  minimal effective dose: 0.3 mg/kg
[3]
  HTD/LTD Dose (rat): 100 mg/kg
  HTD/LTD Dose (rat) (observation): well tolerated

## CN1C(=O)N(c2ncc(C#Cc3ccc(F)cc3)cn2)CC1(C)C [Example 7]
Human mGlu5a receptor [2]
  Shift (hum, 10 uM): 2.44
mGlu5 receptor
  Shift (rat, 10 uM): 1.80
Body temperature test
  minimal effective dose: 0.3 mg/kg
[3]
  HTD/LTD Dose (rat): 100 mg/kg
  HTD/LTD Dose (rat) (observation): well tolerated

## CN(C(=O)c1ccc(C#Cc2cc(F)ccc2F)cn1)C(C)(C)C [Example 12]
Human mGlu5a receptor [2]
  Shift (hum, 10 uM): 1.86
mGlu5 receptor
  Shift (rat, 10 uM): 1.62
Body temperature test
  minimal effective dose: 0.1 mg/kg
[3]
  HTD/LTD Dose (rat): 100 mg/kg
  HTD/LTD Dose (rat) (observation): well tolerated

## CN1C(=O)N(c2ccc(C#Cc3ccccc3)nn2)[C@@H]2CCC[C@@H]21 [Example 4]
Human mGlu5a receptor [2]
  Shift (hum, 10 uM): 2.46
mGlu5 receptor
  Shift (rat, 10 uM): 1.70
Body temperature test
  minimal effective dose: 0.1 mg/kg
[3]
  HTD/LTD Dose (rat): 100 mg/kg
  HTD/LTD Dose (rat) (observation): well tolerated

## CN1C(=O)N(c2ccc(C#Cc3ccccc3)cn2)CC1(C)C [Example 14]
Body temperature test
  minimal effective dose: 0.3 mg/kg
[3]
  HTD/LTD Dose (rat): 3 mg/kg

## CC1(C)CN(c2ccc(C#Cc3ccccc3)cn2)C(=O)O1 [Example 9]
Human mGlu5a receptor [2]
  Shift (hum, 10 uM): 1.70
mGlu5 receptor
  Shift (rat, 10 uM): 2.63
Body temperature test
  minimal effective dose: 1 mg/kg
[3]
  HTD/LTD Dose (rat): 30 mg/kg
  HTD/LTD Dose (rat) (observation): well tolerated

## CN1C(=O)N(c2ccc(C#Cc3cccc(F)c3)cn2)[C@@H]2CCC[C@@H]21 [Example 3]
Human mGlu5a receptor [2]
  Shift (hum, 10 uM): 0.87
mGlu5 receptor
  Shift (rat, 10 uM): 0.82
Body temperature test
  minimal effective dose: 0.1 mg/kg
[3]
  HTD/LTD Dose (rat): 100 mg/kg
  HTD/LTD Dose (rat) (observation): well tolerated

## CC1(C)CCN(c2ccc(C#Cc3ccccc3)cn2)C(=O)C1 [Example 17]
Human mGlu5a receptor [2]
  Shift (hum, 10 uM): 15.95
mGlu5 receptor
  Shift (rat, 10 uM): 12.93
Body temperature test
  minimal effective dose: 0.1 mg/kg
[3]
  HTD/LTD Dose (rat): 100 mg/kg
  HTD/LTD Dose (rat) (observation): seizures

## CN(C(=O)c1ncc(C#Cc2cccc(F)c2)cn1)C(C)(C)C [Example 11]
Human mGlu5a receptor [2]
  Shift (hum, 10 uM): 2.06
mGlu5 receptor
  Shift (rat, 10 uM): 1.86
Body temperature test
  minimal effective dose: 0.1 mg/kg
[3]
  HTD/LTD Dose (rat): 100 mg/kg
  HTD/LTD Dose (rat) (observation): well tolerated

## C(#Cc1cnc2nc(N3CCOCC3)nn2c1)c1ccccc1 [Example 16]
Human mGlu5a receptor [2]
  Shift (hum, 10 uM): 12.13
mGlu5 receptor
  Shift (rat, 10 uM): 11.31
Body temperature test
  minimal effective dose: 3 mg/kg
[3]
  HTD/LTD Dose (rat): 10 mg/kg
  HTD/LTD Dose (rat) (observation): seizures

## CN1C(C)(C)CN(c2ccc(C#Cc3ccccc3)cn2)S1(=O)=O [Example 5]
Human mGlu5a receptor [2]
  Shift (hum, 10 uM): 2.02
mGlu5 receptor
  Shift (rat, 10 uM): 1.66
Body temperature test
  minimal effective dose: 0.3 mg/kg
[3]
  HTD/LTD Dose (rat): 100 mg/kg
  HTD/LTD Dose (rat) (observation): well tolerated

## CC1(C)CN(c2ccc(C#Cc3cccc(F)c3)cn2)C(=O)O1 [Example 6]
Human mGlu5a receptor [2]
  Shift (hum, 10 uM): 1.40
mGlu5 receptor
  Shift (rat, 10 uM): 1.90
Body temperature test
  minimal effective dose: 0.3 mg/kg
[3]
  HTD/LTD Dose (rat): 100 mg/kg
  HTD/LTD Dose (rat) (observation): well tolerated

## CN1C(=O)N(c2ccc(C#Cc3cncc(Cl)c3)cn2)CC1(C)C [Example 8]
Human mGlu5a receptor [2]
  Shift (hum, 10 uM): 3.60
mGlu5 receptor
  Shift (rat, 10 uM): 2.28
Body temperature test
  minimal effective dose: 1 mg/kg
[3]
  HTD/LTD Dose (rat): 100 mg/kg
  HTD/LTD Dose (rat) (observation): well tolerated

## CN1C(=O)N(c2ccc(C#Cc3ccccc3)cn2)[C@@H]2CCC[C@@H]21 [Example 2]
Human mGlu5a receptor [2]
  Shift (hum, 10 uM): 1.02
mGlu5 receptor
  Shift (rat, 10 uM): 0.88
Body temperature test
  minimal effective dose: 0.1 mg/kg
[3]
  HTD/LTD Dose (rat): 100 mg/kg
  HTD/LTD Dose (rat) (observation): well tolerated

## CC1(C)CC(=O)N(c2ccc(C#Cc3cccc(F)c3)cn2)N1 [Example 1]
Human mGlu5a receptor [1]
  efficacy: low efficacy
Human mGlu5a receptor [2]
  Shift (hum, 10 uM): 1.75
mGlu5 receptor
  Shift (rat, 10 uM): 1.44
Body temperature test
  minimal effective dose: 0.3 mg/kg
[3]
  HTD/LTD Dose (rat): 100 mg/kg
  HTD/LTD Dose (rat) (observation): well tolerated

## CC1(C)CCN(c2ccc(C#Cc3cccc(Cl)c3)cn2)C(=O)C1 [Example 13]
Human mGlu5a receptor [2]
  Shift (hum, 10 uM): 4.74
mGlu5 receptor
  Shift (rat, 10 uM): 3.92
Body temperature test
  minimal effective dose: 0.1 mg/kg
[3]
  HTD/LTD Dose (rat): 100 mg/kg
  HTD/LTD Dose (rat) (observation): seizures
